{
  "source": "patent US20080280862A1",
  "about": "“Methods, compositions, and kits for the treatment of pain” (priority 2007, published 2008)",
  "test_system": "formalin-induced pain model in rats",
  "experiment": "Formalin pain model, nociceptive behaviors",
  "assay_type": "in vivo, Sprague-Dawley rats",
  "description": "The formalin model is a fast, reliable model used to assess potential analgesics ability to block inflammatory pain. The analgesic effects of test article combinations on pain generation are assayed using the formalin-induced pain model in rats. Adult male Sprague-Dawley rats are administered intraperitoneally study drugs (vehicle, TCA, steroid or TCA/Steroid test article combinations) once daily for 2 days (day −2 and day −1) and 30 minutes prior to the formalin injection day on day 0 (time=0). […] To elicit a pain response, dilute formalin (2% in saline) is injected under the skin of the plantar surface of the right hindpaw. The animal is placed in an observation chamber. The pain response is a characteristic biphasic response pattern of nociceptive behaviors (lifting, licking, and biting of the injected paw). Two distinct periods of nociceptive behaviors/activity are observed and recorded: an early phase (phase I) lasting the first 5-10 min and a late phase (phase II) lasting 20-40 min after the injection of formalin. One hour of data is collected (time spent displaying pain behavior) by a blinded observer using a stopwatch. Results are expressed as the number of pain behaviors per 5 minute periods (Table 8 and Table 9).",
  "data": [
    {"molecule": "CNCCC=C1c2ccccc2CCc2ccccc21", "note": "[Nortriptyline]", "values": [
      {"measurement": "Mean number of behaviors per 5 minute block", "setting": "Experiment One, nortriptyline, 3 mg/kg, 15 minutes", "result": "87.0 ± 32.8"},
      {"measurement": "Mean number of behaviors per 5 minute block", "setting": "Experiment One, nortriptyline, 3 mg/kg, 20 minutes", "result": "159.0 ± 39.7"},
      {"measurement": "Mean number of behaviors per 5 minute block", "setting": "Experiment One, nortriptyline, 3 mg/kg, 25 minutes", "result": "182.0 ± 36.3"},
      {"measurement": "Mean number of behaviors per 5 minute block", "setting": "Experiment One, nortriptyline, 3 mg/kg, 30 minutes", "result": "231.0 ± 32.4"},
      {"measurement": "Mean number of behaviors per 5 minute block", "setting": "Experiment One, nortriptyline, 3 mg/kg, 35 minutes", "result": "253.0 ± 30.7"},
      {"measurement": "Mean number of behaviors per 5 minute block", "setting": "Experiment One, nortriptyline, 3 mg/kg, 40 minutes", "result": "253.0 ± 30.8"},
      {"measurement": "Mean number of behaviors per 5 minute block", "setting": "Experiment One, nortriptyline, 3 mg/kg, 45 minutes", "result": "258.0 ± 28.3"},
      {"measurement": "Mean number of behaviors per 5 minute block", "setting": "Experiment One, nortriptyline, 3 mg/kg, 50 minutes", "result": "212.0 ± 28.3"},
      {"measurement": "Mean number of behaviors per 5 minute block", "setting": "Experiment One, nortriptyline, 3 mg/kg, 55 minutes", "result": "136.0 ± 40.3"},
      {"measurement": "Mean number of behaviors per 5 minute block", "setting": "Experiment One, nortriptyline, 3 mg/kg, 60 minutes", "result": "94.0 ± 41.7"},
      {"measurement": "Mean number of behaviors per 5 minute block", "setting": "Experiment One, nortriptyline, 10 mg/kg, 5 minutes", "result": "227.0 ± 19.3"},
      {"measurement": "Mean number of behaviors per 5 minute block", "setting": "Experiment One, nortriptyline, 10 mg/kg, 10 minutes", "result": "30.0 ± 18.2"},
      {"measurement": "Mean number of behaviors per 5 minute block", "setting": "Experiment One, nortriptyline, 10 mg/kg, 15 minutes", "result": "11.0 ± 6.1"},
      {"measurement": "Mean number of behaviors per 5 minute block", "setting": "Experiment One, nortriptyline, 10 mg/kg, 20 minutes", "result": "39.0 ± 29.4"},
      {"measurement": "Mean number of behaviors per 5 minute block", "setting": "Experiment One, nortriptyline, 10 mg/kg, 25 minutes", "result": "62.0 ± 38.5"},
      {"measurement": "Mean number of behaviors per 5 minute block", "setting": "Experiment One, nortriptyline, 10 mg/kg, 30 minutes", "result": "60.0 ± 34.4"},
      {"measurement": "Mean number of behaviors per 5 minute block", "setting": "Experiment One, nortriptyline, 10 mg/kg, 35 minutes", "result": "99.0 ± 43.0"},
      {"measurement": "Mean number of behaviors per 5 minute block", "setting": "Experiment One, nortriptyline, 10 mg/kg, 40 minutes", "result": "109.0 ± 44.0"},
      {"measurement": "Mean number of behaviors per 5 minute block", "setting": "Experiment One, nortriptyline, 10 mg/kg, 45 minutes", "result": "122.0 ± 43.2"},
      {"measurement": "Mean number of behaviors per 5 minute block", "setting": "Experiment One, nortriptyline, 10 mg/kg, 50 minutes", "result": "96.0 ± 39.1"},
      {"measurement": "Mean number of behaviors per 5 minute block", "setting": "Experiment One, nortriptyline, 10 mg/kg, 55 minutes", "result": "140.0 ± 42.6"},
      {"measurement": "Mean number of behaviors per 5 minute block", "setting": "Experiment One, nortriptyline, 10 mg/kg, 60 minutes", "result": "180.0 ± 40.3"},
      {"measurement": "Mean number of behaviors per 5 minute block", "setting": "Experiment One, nortriptyline, 20 mg/kg, 5 minutes", "result": "158.0 ± 31.6"},
      {"measurement": "Mean number of behaviors per 5 minute block", "setting": "Experiment One, nortriptyline, 20 mg/kg, 10 minutes", "result": "21.0 ± 12.8"},
      {"measurement": "Mean number of behaviors per 5 minute block", "setting": "Experiment One, nortriptyline, 20 mg/kg, 15 minutes", "result": "0.0 ± 0.0"},
      {"measurement": "Mean number of behaviors per 5 minute block", "setting": "Experiment One, nortriptyline, 20 mg/kg, 20 minutes", "result": "9.0 ± 8.8"},
      {"measurement": "Mean number of behaviors per 5 minute block", "setting": "Experiment One, nortriptyline, 20 mg/kg, 25 minutes", "result": "30.0 ± 30.0"},
      {"measurement": "Mean number of behaviors per 5 minute block", "setting": "Experiment One, nortriptyline, 20 mg/kg, 30 minutes", "result": "36.0 ± 29.9"},
      {"measurement": "Mean number of behaviors per 5 minute block", "setting": "Experiment One, nortriptyline, 20 mg/kg, 35 minutes", "result": "33.0 ± 29.2"},
      {"measurement": "Mean number of behaviors per 5 minute block", "setting": "Experiment One, nortriptyline, 20 mg/kg, 40 minutes", "result": "29.0 ± 29.3"},
      {"measurement": "Mean number of behaviors per 5 minute block", "setting": "Experiment One, nortriptyline, 20 mg/kg, 45 minutes", "result": "33.0 ± 26.9"},
      {"measurement": "Mean number of behaviors per 5 minute block", "setting": "Experiment One, nortriptyline, 20 mg/kg, 50 minutes", "result": "46.0 ± 28.2"},
      {"measurement": "Mean number of behaviors per 5 minute block", "setting": "Experiment One, nortriptyline, 20 mg/kg, 55 minutes", "result": "47.0 ± 29.4"},
      {"measurement": "Mean number of behaviors per 5 minute block", "setting": "Experiment One, nortriptyline, 20 mg/kg, 60 minutes", "result": "68.0 ± 37.6"},
      {"measurement": "Mean number of behaviors per 5 minute block", "setting": "Experiment Two, 1 mg/kg, 5 minutes", "result": "232.0 ± 16.5"},
      {"measurement": "Mean number of behaviors per 5 minute block", "setting": "Experiment Two, 1 mg/kg, 10 minutes", "result": "13.0 ± 4.9"},
      {"measurement": "Mean number of behaviors per 5 minute block", "setting": "Experiment Two, 1 mg/kg, 15 minutes", "result": "27.0 ± 16.8"},
      {"measurement": "Mean number of behaviors per 5 minute block", "setting": "Experiment Two, 1 mg/kg, 20 minutes", "result": "113.0 ± 44.2"},
      {"measurement": "Mean number of behaviors per 5 minute block", "setting": "Experiment Two, 1 mg/kg, 25 minutes", "result": "165.0 ± 45.1"},
      {"measurement": "Mean number of behaviors per 5 minute block", "setting": "Experiment Two, 1 mg/kg, 30 minutes", "result": "234.0 ± 26.3"},
      {"measurement": "Mean number of behaviors per 5 minute block", "setting": "Experiment Two, 1 mg/kg, 35 minutes", "result": "270.0 ± 10.6"},
      {"measurement": "Mean number of behaviors per 5 minute block", "setting": "Experiment Two, 1 mg/kg, 40 minutes", "result": "281.0 ± 10.4"},
      {"measurement": "Mean number of behaviors per 5 minute block", "setting": "Experiment Two, 1 mg/kg, 45 minutes", "result": "287.0 ± 5.5"},
      {"measurement": "Mean number of behaviors per 5 minute block", "setting": "Experiment Two, 1 mg/kg, 50 minutes", "result": "266.0 ± 16.6"},
      {"measurement": "Mean number of behaviors per 5 minute block", "setting": "Experiment Two, 1 mg/kg, 55 minutes", "result": "192.0 ± 38.3"},
      {"measurement": "Mean number of behaviors per 5 minute block", "setting": "Experiment Two, 1 mg/kg, 60 minutes", "result": "170.0 ± 46.6"},
      {"measurement": "Mean number of behaviors per 5 minute block", "setting": "Experiment Two, 3 mg/kg, 5 minutes", "result": "228.0 ± 25.1"},
      {"measurement": "Mean number of behaviors per 5 minute block", "setting": "Experiment Two, 3 mg/kg, 10 minutes", "result": "28.0 ± 12.3"},
      {"measurement": "Mean number of behaviors per 5 minute block", "setting": "Experiment Two, 3 mg/kg, 15 minutes", "result": "10.0 ± 6.2"},
      {"measurement": "Mean number of behaviors per 5 minute block", "setting": "Experiment Two, 3 mg/kg, 20 minutes", "result": "96.0 ± 43.8"},
      {"measurement": "Mean number of behaviors per 5 minute block", "setting": "Experiment Two, 3 mg/kg, 25 minutes", "result": "162.0 ± 44.0"},
      {"measurement": "Mean number of behaviors per 5 minute block", "setting": "Experiment Two, 3 mg/kg, 30 minutes", "result": "200.0 ± 45.0"},
      {"measurement": "Mean number of behaviors per 5 minute block", "setting": "Experiment Two, 3 mg/kg, 35 minutes", "result": "217.0 ± 47.8"},
      {"measurement": "Mean number of behaviors per 5 minute block", "setting": "Experiment Two, 3 mg/kg, 40 minutes", "result": "216.0 ± 47.3"},
      {"measurement": "Mean number of behaviors per 5 minute block", "setting": "Experiment Two, 3 mg/kg, 45 minutes", "result": "220.0 ± 48.1"},
      {"measurement": "Mean number of behaviors per 5 minute block", "setting": "Experiment Two, 3 mg/kg, 50 minutes", "result": "224.0 ± 42.0"},
      {"measurement": "Mean number of behaviors per 5 minute block", "setting": "Experiment Two, 3 mg/kg, 55 minutes", "result": "247.0 ± 36.2"},
      {"measurement": "Mean number of behaviors per 5 minute block", "setting": "Experiment Two, 3 mg/kg, 60 minutes", "result": "188.0 ± 36.8"}
    ]}
  ]
}
